# Key:
# [1] = target: human Cav3.2 (Homo sapiens, UniProt O95180); type: cell-based
# [2] = target: T1, human Cav2.2/β3/α2δ1 (Homo sapiens, UniProt Q00975); type: cell-based
# [3] = target: human Cav1.2/β2/α2δ1 (Homo sapiens, UniProt Q13936)
# [4] = target: human Cav2.1/β4/α2δ1 (Homo sapiens, UniProt O00555); type: cell-based
# [5] = target: T1, human Cav2.2/β3/α2δ1; assay: IonWorks Barracuda repetitive test pulse train; type: cell-based; conditions: Cav2.2, 30 pulse train 0.1 Hz
# human Cav1.2/β2/α2δ1, sequence (P54289 957-1103): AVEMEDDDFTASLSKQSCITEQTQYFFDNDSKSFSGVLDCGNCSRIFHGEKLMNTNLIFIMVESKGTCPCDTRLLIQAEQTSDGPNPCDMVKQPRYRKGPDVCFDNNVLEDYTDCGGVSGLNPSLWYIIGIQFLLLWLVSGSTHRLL
# human Cav1.2/β2/α2δ1, sequence (Q08289 whole entry, further chain): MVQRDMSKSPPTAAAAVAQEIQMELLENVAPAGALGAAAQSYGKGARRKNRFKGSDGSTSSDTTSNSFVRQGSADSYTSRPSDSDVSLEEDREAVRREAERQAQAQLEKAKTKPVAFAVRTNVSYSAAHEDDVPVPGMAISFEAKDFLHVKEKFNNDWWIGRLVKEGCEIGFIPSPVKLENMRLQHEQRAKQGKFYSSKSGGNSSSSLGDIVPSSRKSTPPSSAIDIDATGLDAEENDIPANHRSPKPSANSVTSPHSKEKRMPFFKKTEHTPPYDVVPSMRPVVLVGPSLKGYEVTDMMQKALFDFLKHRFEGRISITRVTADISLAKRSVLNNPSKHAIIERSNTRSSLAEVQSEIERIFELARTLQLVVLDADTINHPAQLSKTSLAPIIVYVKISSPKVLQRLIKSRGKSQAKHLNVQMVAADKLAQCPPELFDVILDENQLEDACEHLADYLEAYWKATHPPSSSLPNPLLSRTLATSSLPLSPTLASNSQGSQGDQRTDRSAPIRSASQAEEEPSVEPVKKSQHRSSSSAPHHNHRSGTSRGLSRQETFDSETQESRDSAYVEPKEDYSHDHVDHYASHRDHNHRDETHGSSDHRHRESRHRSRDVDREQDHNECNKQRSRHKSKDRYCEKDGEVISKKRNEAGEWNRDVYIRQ
# human Cav1.2/β2/α2δ1, sequence (P54289 25-956): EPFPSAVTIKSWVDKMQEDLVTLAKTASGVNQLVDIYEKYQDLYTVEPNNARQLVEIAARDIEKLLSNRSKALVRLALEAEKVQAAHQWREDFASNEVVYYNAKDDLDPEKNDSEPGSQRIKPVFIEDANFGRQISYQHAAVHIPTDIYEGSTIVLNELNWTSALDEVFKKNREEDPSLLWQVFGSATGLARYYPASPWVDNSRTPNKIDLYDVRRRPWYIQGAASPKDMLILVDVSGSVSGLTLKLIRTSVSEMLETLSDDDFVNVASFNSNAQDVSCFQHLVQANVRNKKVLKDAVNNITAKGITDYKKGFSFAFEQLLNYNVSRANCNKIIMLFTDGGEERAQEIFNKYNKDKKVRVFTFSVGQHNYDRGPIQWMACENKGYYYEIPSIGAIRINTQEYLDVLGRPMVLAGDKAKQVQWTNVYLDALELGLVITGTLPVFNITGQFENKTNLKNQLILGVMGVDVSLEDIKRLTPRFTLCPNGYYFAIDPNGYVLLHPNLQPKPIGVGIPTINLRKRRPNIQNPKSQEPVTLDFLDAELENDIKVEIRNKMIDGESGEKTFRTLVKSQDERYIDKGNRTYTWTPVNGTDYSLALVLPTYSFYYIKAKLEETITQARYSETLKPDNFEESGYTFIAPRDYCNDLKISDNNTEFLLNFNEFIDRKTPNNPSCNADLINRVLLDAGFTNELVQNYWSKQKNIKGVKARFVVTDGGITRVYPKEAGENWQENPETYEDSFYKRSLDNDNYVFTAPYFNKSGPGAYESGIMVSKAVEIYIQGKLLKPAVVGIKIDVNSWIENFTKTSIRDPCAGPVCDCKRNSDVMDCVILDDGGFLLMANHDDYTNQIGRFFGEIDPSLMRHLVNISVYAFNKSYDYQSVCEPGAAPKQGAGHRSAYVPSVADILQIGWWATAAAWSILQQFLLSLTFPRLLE
# human Cav1.2/β2/α2δ1, sequence (Q13936 whole entry): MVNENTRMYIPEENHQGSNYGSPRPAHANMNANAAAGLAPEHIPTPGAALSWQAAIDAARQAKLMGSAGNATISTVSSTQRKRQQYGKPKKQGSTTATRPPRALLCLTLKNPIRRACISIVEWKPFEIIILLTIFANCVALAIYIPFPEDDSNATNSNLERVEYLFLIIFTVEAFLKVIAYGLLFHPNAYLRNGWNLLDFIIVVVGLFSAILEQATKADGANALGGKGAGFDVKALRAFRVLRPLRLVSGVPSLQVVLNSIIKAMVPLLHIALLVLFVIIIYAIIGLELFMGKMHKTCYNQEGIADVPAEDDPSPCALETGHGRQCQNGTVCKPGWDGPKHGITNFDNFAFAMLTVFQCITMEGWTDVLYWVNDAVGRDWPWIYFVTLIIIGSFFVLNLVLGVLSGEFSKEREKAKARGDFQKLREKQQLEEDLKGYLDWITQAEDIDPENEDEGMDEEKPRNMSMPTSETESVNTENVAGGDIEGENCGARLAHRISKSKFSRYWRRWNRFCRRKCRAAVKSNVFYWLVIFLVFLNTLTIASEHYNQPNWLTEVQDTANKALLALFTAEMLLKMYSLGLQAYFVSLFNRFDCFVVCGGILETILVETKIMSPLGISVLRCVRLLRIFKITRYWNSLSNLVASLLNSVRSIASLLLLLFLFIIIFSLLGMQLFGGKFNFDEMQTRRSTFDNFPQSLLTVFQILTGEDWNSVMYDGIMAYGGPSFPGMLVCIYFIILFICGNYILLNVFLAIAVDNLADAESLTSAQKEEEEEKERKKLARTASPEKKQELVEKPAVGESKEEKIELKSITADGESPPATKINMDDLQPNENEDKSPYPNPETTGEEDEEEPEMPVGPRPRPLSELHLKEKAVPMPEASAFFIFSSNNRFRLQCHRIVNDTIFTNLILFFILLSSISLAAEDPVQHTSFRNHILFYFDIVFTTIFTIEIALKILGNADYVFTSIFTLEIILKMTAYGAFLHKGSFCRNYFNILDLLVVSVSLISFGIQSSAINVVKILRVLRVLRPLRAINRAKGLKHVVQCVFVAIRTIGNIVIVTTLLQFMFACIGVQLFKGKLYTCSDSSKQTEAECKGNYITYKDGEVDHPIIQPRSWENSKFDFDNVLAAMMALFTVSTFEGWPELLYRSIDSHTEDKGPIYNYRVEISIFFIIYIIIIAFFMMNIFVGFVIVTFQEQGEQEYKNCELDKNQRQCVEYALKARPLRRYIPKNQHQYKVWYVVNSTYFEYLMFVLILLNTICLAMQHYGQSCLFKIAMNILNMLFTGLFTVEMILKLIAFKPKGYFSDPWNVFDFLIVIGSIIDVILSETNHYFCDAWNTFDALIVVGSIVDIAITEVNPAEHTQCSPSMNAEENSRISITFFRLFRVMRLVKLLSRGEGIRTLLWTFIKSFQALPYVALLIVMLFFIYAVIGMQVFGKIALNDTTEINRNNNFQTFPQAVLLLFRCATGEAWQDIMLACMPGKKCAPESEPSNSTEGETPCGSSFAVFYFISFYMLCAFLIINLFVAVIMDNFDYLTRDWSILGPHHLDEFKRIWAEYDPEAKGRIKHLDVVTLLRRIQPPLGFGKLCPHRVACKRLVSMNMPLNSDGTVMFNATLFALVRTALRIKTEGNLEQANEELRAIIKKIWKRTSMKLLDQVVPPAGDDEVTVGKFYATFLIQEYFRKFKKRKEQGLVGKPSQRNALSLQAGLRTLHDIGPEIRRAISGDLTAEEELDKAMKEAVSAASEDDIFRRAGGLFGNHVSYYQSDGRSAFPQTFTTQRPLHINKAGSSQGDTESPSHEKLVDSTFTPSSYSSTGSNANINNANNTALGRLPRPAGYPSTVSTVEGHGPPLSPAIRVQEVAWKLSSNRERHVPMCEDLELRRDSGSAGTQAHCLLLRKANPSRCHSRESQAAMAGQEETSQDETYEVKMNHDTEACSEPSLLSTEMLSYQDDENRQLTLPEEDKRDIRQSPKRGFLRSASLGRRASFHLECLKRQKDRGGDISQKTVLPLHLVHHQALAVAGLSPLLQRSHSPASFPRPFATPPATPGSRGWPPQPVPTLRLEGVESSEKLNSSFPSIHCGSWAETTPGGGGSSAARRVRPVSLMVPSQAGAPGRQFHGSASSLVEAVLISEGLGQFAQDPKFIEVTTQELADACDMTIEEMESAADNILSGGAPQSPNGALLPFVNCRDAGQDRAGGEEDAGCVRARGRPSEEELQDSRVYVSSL
smiles,measurement,setting,value
"COC(=O)C1=C(C)NC(C)=C([N+](=O)[O-])[C@H]1c1ccccc1C(F)(F)F [BAY K8644, (S)-(−)-BAY K8644]",effect on Cav3.2 at high concentration,[1]; concentrations ≥10 μM,nonspecific inhibition
same,effect on Cav2.2 at high concentration,[2]; concentrations ≥10 μM,nonspecific inhibition
same,effect on Cav1.2 currents,"[3]; 0.3 μM, test pulse 10 mV, holding −90 mV, 60-s CP to −50 mV",potentiated
same,effect on Cav1.2 at high concentration,[3]; concentrations ≥10 μM,nonspecific inhibition
same,extent of potentiation of Cav1.2 channels,"[3]; dose–response, Fig. 2B",twofold potentiation
same,effect on Cav2.1 at high concentration,[4]; concentrations ≥10 μM,nonspecific inhibition
"COCC(=O)O[C@]1(CCN(C)CCCc2nc3ccccc3[nH]2)CCc2cc(F)ccc2[C@@H]1C(C)C [Mibefradil, mibefradil]",potency of use-dependent block in Cav3.2 versus Cav1.2,"[1]; use-dependent block, multiple mode assay",fourfold more potent
same,potency of inhibition at TP30 compared with TP1,[5],about seven times more potent
same,Cav2.2 blocking characteristics in multiple mode assay,"[2]; current traces Fig. 5B, 10 μM mibefradil, 30 μM verapamil","use-dependent, but not inactivation-dependent block augmentation"
"COC(=O)C1=C(C)NC(C)=C(C(=O)OC)C1c1ccccc1[N+](=O)[O-] [Nifedipine, nifedipine]",sensitivity of Cav3.2 channels,[1]; concentrations up to 3 μM (not shown),insensitive
"O=c1[nH]c2ccccc2n1C1CCN(CCCC(c2ccc(F)cc2)c2ccc(F)cc2)CC1 [Pimozide, pimozide]",IC50,[2],> 30 µM
same,IC50,[4],> 30 µM
